PubChem BioAssay AID1963985 (Molecular Pharmacology Branch, DTP, NCI, 2024)
Values joined by “and” are separate entries in the source; they are usually repeats but may differ in a detail not shown here. Equal entries are not always repeated. Blank lines part the entries; values can stand above or below the compound they belong to.

Test system: 252836-082-R-J2-PDC tumor spheroids, viability
Test: Anticancer human tumor 252836-082-R-J2-PDC patient-derived head and neck squamous cell carcinoma cell line growth inhibition [PI3K]
Conditions: spheroids with HUVEC and MSC; for viability, T/C: stronger effect = lower value
Description: Combinatorial screen of targeted agents with the PI3K inhibitors inavolisib, alpelisib, duvelisib, and copanlisib in multi-cell type tumor spheroids
A high-throughput screen of multi-cell type tumor spheroids was designed to identify active combinations of targeted small molecules and PI3K pathway inhibitors. Complex spheroids include a stromal component modeled by human endothelial cells (HUVEC) and fibroblasts modeled by human mesenchymal stem cells (MSCs). The concentration ranges selected for each drug and investigational agent were based upon clinically achievable concentrations if the clinical Cmax of the agent was known.
Compounds. The drugs and investigational agents: inavolisib (NSC800729), alpelisib (NSC765974), duvelisib (NSC772469), copanlisib (NSC816437), ipatasertib (NSC767898), afuresertib (NSC778305), talazoparib (NSC767125), sapanisertib (NSC764658), selumetinib (NSC741078), tovorafenib (DAY101, NSC766906), vemurafenib (NSC761431), ravoxertinib (NSC781343), sotorasib (NSC818433), MRTX1133 (NSC 836407), abemaciclib (NSC 768073), palbociclib (NSC758247), venetoclax (NSC 766270), SY5609 (NSC837396), enzalutamide (NSC755605), and darolutamide (NSC825331), were obtained from the National Cancer Institute (NCI) Developmental Therapeutics Program Chemical Repository. The FDA-approved anticancer drug set is available from the NCI Developmental Therapeutics Program. […] The stock solutions were prepared in dimethyl sulfoxide (DMSO, Sigma-Aldrich, St. Louis, MO, cat. D2650) at 800-fold the tested concentration and stored at -70 degrees C prior to their use. All drugs and investigational agents were tested over a range starting from a high concentration at or near the clinical Cmax and decreasing in half-log increments. If the clinical Cmax for an agent had not been determined, the highest concentration tested was 10 microM.
Cell Culture. All cells were maintained in an incubator at 37 degrees C and 5% CO2 with 95% humidity. The PDC lines were cultured according to standard operating procedures established by the NCI PDMR (https://pdmr.cancer.gov/sops/default.htm). All PDCs were thawed and cultured in Matrigel-coated flasks prepared with a working solution of 1X Ham's F-12 nutrient mix, without supplementation (Invitrogen, Waltham, MA, cat. 11765054), 100 U/mL penicillin-streptomycin (Invitrogen, cat. 15140122), and 2.5% Matrigel (Corning Inc., Corning, NY, cat. 354248) for the first three passages. The 354836-022-R-J1-PDC, 475296-252-R-J1-PDC, and 997726-040-R-J2-PDC lines were cultured in 6A media, which includes advanced DMEM/F-12 (Thermo Fisher Scientific, cat. 12634028), 10 mM HEPES (Thermo Fisher Scientific, cat. 15630080), 1X GlutaMAX supplement (Thermo Fisher Scientific, cat. 35050061), 0.1 mg/mL primocin (InvivoGen, San Diego, CA, cat. ant-pm-2), 10% defined fetal bovine serum, heat inactivated (HyClone Laboratories Inc., Logan, UT, cat. SH30070.03HI), 50% L-WRN conditioned media (ATCC, cat. CRL-3276), 1.25 mM N-Acetyl-L-cysteine (Sigma-Aldrich, cat. A9165), 10 mM nicotinamide (Sigma-Aldrich, cat. N0636), 1X B-27 supplement (Thermo Fisher Scientific, cat. 17504044), 1X N-2 supplement (Thermo Fisher Scientific, cat. 17502048), and 10 microM Y-27632 dihydrochloride (Tocris Bioscience, Bristol, United Kingdom, cat. 1254). The 624824-186-R-J2-PDC line was cultured in 6C/Colon 1B media, which includes all 6A media components plus 50 ng/mL human EGF recombinant protein (Thermo Fisher Scientific, cat. PHG0311). […]

[1] = compound alone, run of 06/13/2023
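Further: spheroids exposed to agents for seven days before readout.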
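Wherever viability, T/C is given: percent of vehicle DMSO control viability so 100% = untreated growth.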

IC50 (curve of compound): > 100 nM
Compound: CC(=O)c1c(C)c2cnc(Nc3ccc(N4CCNCC4)cn3)nc2n(C2CCCC2)c1=O
viability, T/C (compound 0.000316 µM): 95.4% [middle of 4 runs]
viability, T/C (compound 0.001 µM): 95.7% [middle of 4 runs]
viability, T/C (compound 0.00316 µM): 93.9% and 100% (2×) and 83.1%
viability, T/C (compound 0.01 µM): 97.5% [middle of 4 runs]
viability, T/C (compound 0.0316 µM): 87.3% [middle of 4 runs]
viability, T/C (compound 0.1 µM): 95.2% [middle of 4 runs]

IC50 (curve of compound): 850 nM [middle of 4 runs]
Compound: CC(C)NCC(C(=O)N1CCN(c2ncnc3c2C(C)CC3O)CC1)c1ccc(Cl)cc1 (stereo unspecified)
viability, T/C (compound 0.0316 µM): 84.2% [middle of 4 runs]
viability, T/C (compound 0.1 µM): 96.8% [middle of 4 runs]
viability, T/C (compound 0.316 µM): 87.8% (2×) and 61.1% and 70.6%
viability, T/C (compound 1 µM): 45.1% [middle of 4 runs]
viability, T/C (compound 3.16 µM): 31.7% [middle of 4 runs]
viability, T/C (compound 10 µM): 19.7% [middle of 4 runs]

IC50 (curve of compound): 36.6 nM [middle of 4 runs]
Compound: CC(C)n1nc(-c2ccc3oc(N)nc3c2)c2c(N)ncnc21
viability, T/C (compound 0.000316 µM): 93.7% [middle of 4 runs]
viability, T/C (compound 0.001 µM): 91.8% [middle of 4 runs]
viability, T/C (compound 0.00316 µM): 87.4% [middle of 4 runs]
viability, T/C (compound 0.01 µM): 80.9% [middle of 4 runs]
viability, T/C (compound 0.0316 µM): 53.5% [middle of 4 runs]
viability, T/C (compound 0.1 µM): 23% [middle of 4 runs]

Compound: CC(Nc1ccc2c(c1)OCCn1cc(N3C(=O)OCC3C(F)F)nc1-2)C(N)=O (stereo unspecified)
viability, T/C (compound 0.00316 µM): 93% [middle of 8 runs]
viability, T/C (compound 0.01 µM): 96.8% [middle of 8 runs]
viability, T/C (compound 0.0316 µM): 81% [middle of 8 runs]
viability, T/C (compound 0.1 µM): 65.7% [middle of 8 runs]
viability, T/C (compound 0.316 µM): 51.8% [middle of 8 runs]
viability, T/C (compound 1 µM): 47.7% [middle of 8 runs]

IC50 [1]: > 10000 nM
Compound: CC(Nc1ncnc2nc[nH]c12)c1cc2cccc(Cl)c2c(=O)n1-c1ccccc1 (stereo unspecified)
viability, T/C (compound 0.0316 µM): 96.2% [middle of 8 runs]
viability, T/C (compound 0.1 µM): 95.5% [middle of 8 runs]
viability, T/C (compound 0.316 µM): 97.4% [middle of 8 runs]
viability, T/C (compound 3.16 µM): 78.1% [middle of 8 runs]
viability, T/C (compound 10 µM): 64.3% [middle of 8 runs]

IC50 (curve of compound): > 1000 nM
Compound: CCN1CCN(Cc2ccc(Nc3ncc(F)c(-c4cc(F)c5nc(C)n(C(C)C)c5c4)n3)nc2)CC1
viability, T/C (compound 0.00316 µM): 99.2% [middle of 4 runs]
viability, T/C (compound 0.01 µM): 91.3% [middle of 4 runs]
viability, T/C (compound 0.0316 µM): 94.5% [middle of 4 runs]
viability, T/C (compound 0.1 µM): 95.2% [middle of 4 runs]
viability, T/C (compound 0.316 µM): 91.5% [middle of 4 runs]

IC50 [1]: 47.6 nM [middle of 8 runs]
Compound: COc1c(OCCCN2CCOCC2)ccc2c3n(c(=NC(=O)c4cnc(N)nc4)nc12)CCN3
viability, T/C (compound 0.00316 µM): 96.6% [middle of 8 runs]
viability, T/C (compound 0.01 µM): 80.7% [middle of 8 runs]
viability, T/C (compound 0.0316 µM): 59.6% [middle of 8 runs]
viability, T/C (compound 0.1 µM): 36.6% [middle of 8 runs]
viability, T/C (compound 0.316 µM): 15.3% [middle of 7 runs]
viability, T/C (compound 1 µM): 4.26% [middle of 8 runs]

IC50 (compound alone, run of 06/12/2023): 2.64 µM [middle of 8 runs]
Compound: Cc1nc(NC(=O)N2CCCC2C(N)=O)sc1-c1ccnc(C(C)(C)C(F)(F)F)c1 (stereo unspecified)
viability, T/C (compound 0.0316 µM): 86.2% [middle of 8 runs]
viability, T/C (compound 0.1 µM): 88.9% [middle of 8 runs]
viability, T/C (compound 0.316 µM): 81% [middle of 8 runs]
viability, T/C (compound 1 µM): 62.9% [middle of 8 runs]
viability, T/C (compound 3.16 µM): 48% [middle of 8 runs]
viability, T/C (compound 10 µM): 35% [middle of 8 runs]

Compound: Cn1cnc2c(F)c(Nc3ccc(Br)cc3Cl)c(C(=O)NOCCO)cc21
viability, T/C (compound 0.00949 µM): 80.3% and 86.2% (2×) and 89.4%
viability, T/C (compound 0.03 µM): 93.8% [middle of 4 runs]
viability, T/C (compound 0.0949 µM): 81.6% [middle of 4 runs]
viability, T/C (compound 0.3 µM): 86.9% [middle of 4 runs]
viability, T/C (compound 0.949 µM): 72.7% [middle of 4 runs]
viability, T/C (compound 3 µM): 49.5% [middle of 4 runs]

IC50 (curve of compound): > 100 nM
Compound: Cn1ncnc1[C@H]1c2n[nH]c(=O)c3cc(F)cc(c23)N[C@@H]1c1ccc(F)cc1
viability, T/C (compound 0.000316 µM): 97% [middle of 4 runs]
viability, T/C (compound 0.001 µM): 95.9% [middle of 4 runs]
viability, T/C (compound 0.00316 µM): 89.2% [middle of 4 runs]
viability, T/C (compound 0.01 µM): 93.7% [middle of 4 runs]
viability, T/C (compound 0.0316 µM): 69.4% [middle of 4 runs]
viability, T/C (compound 0.1 µM): 55.5% [middle of 4 runs]
